Measurements reported in ChEMBL document CHEMBL3751782, “Synthesis and biological evaluation of quinoxaline di-N-oxide derivatives with in vitro trypanocidal activity” (Bioorg Med Chem Lett, 2016).

How the values were obtained:
Trypanosoma cruzi [1] = test: Trypanocidal activity against Trypanosoma cruzi Tulahuen 2 epimastigotes at 25 uM after 5 days; assay type: functional; settings: Tulahuen 2, 120 h
Trypanosoma cruzi [2] = test: Trypanocidal activity against Trypanosoma cruzi Tulahuen 2 epimastigotes after 5 days; assay type: functional, organism-based; settings: Tulahuen 2, 120 h
Vero = test: Cytotoxicity against African green monkey Vero cells after 48 hrs by MTT assay; assay type: cell-based; settings: Chlorocebus sabaeus
[3] = Selectivity index, ratio of IC50 for African green monkey Vero cells to IC50 for Trypanosoma cruzi Tulahuen 2 epimastigotes; assay type: toxicity, cell-based; settings: read-out: Ratio IC50

Row | Structure (SMILES) | inhibition at 25 µM (Trypanosoma cruzi [1]) | IC50 (Trypanosoma cruzi [2]) | IC50 (Vero) | selectivity ratio [3]
1 | O=C(c1ccc(F)cc1)c1c(C(F)(F)F)[n+]([O-])c2cc(F)c(F)cc2[n+]1[O-] | 91.8% | 0.6 µM | 3 µM | 5
2 | O=C(c1ccc(F)cc1)c1c(C(F)(F)F)[n+]([O-])c2ccc(Cl)cc2[n+]1[O-] | 86.1% | 1 µM | – | –
3 | CC(C)C(=O)c1c(C(F)(F)F)[n+]([O-])c2cc(N(C)C)c(N3CCOCC3)cc2[n+]1[O-] | 86% | 10.7 µM | – | –
4 | O=C(c1ccc(F)cc1)c1c(C(F)(F)F)[n+]([O-])c2ccc(F)cc2[n+]1[O-] | 95.6% | 1.1 µM | 4.4 µM | 4
5 | O=C(c1ccco1)c1c(C(F)(F)F)nc2cc(Cl)c(N3CCOCC3)cc2[n+]1[O-] | 91.7% | 12.1 µM | 455 µM | 37.6
6 | CC(C)C(=O)c1c(C(F)(F)F)[n+]([O-])c2cc(N3CCOCC3)c(N3CCOCC3)cc2[n+]1[O-] | 66.3% | 17 µM | – | –
7 | O=C(c1ccc(F)cc1)c1c(C(F)(F)F)[n+]([O-])c2cc(Cl)c(Cl)cc2[n+]1[O-] | 89.3% | 1.3 µM | – | –
8 | CC(=O)c1c(C(F)(F)F)[n+]([O-])c2cc(F)c(N3CCSCC3)cc2[n+]1[O-] | 83.4% | 2 µM | – | –
9 | CC(=O)c1c(C(F)(F)F)[n+]([O-])c2cc(F)c(N3CCC(N4CCOCC4)CC3)cc2[n+]1[O-] | 93.4% | 5.3 µM | – | –
10 | CC(=O)c1c(C(F)(F)F)[n+]([O-])c2cc(F)c(N3CCOCC3)cc2[n+]1[O-] | 100% | 6.4 µM | – | –
11 | CC(=O)c1c(C(F)(F)F)[n+]([O-])c2cc(N3CCCCC3)c(N3CCCCC3)cc2[n+]1[O-] | 100% | 2.3 µM | 4.5 µM | 1.7
12 | CCOC(=O)c1c(C(F)(F)F)nc2cc(Cl)c(N3CCOCC3)cc2[n+]1[O-] | 54.6% | > 25 µM | – | –
13 | CC(=O)c1c(C(F)(F)F)[n+]([O-])c2cc(N3CCC(O)CC3)c(N3CCC(O)CC3)cc2[n+]1[O-] | 15.7% | > 25 µM | – | –
14 | CC(=O)c1c(C(F)(F)F)[n+]([O-])c2cc(F)c(N3CCCCC3)cc2[n+]1[O-] | 96.9% | 2.6 µM | 15.2 µM | 5.8
15 | CC(=O)c1c(C(F)(F)F)[n+]([O-])c2cc(F)c(N3CCC(O)CC3)cc2[n+]1[O-] | 84.9% | 6.3 µM | – | –
16 | O=C(Cn1ccnc1[N+](=O)[O-])NCc1ccccc1 [BENZNIDAZOLE] | 100% | 8 µM | – | –
17 | CC1CS(=O)(=O)CCN1/N=C/c1ccc([N+](=O)[O-])o1 (stereo not drawn) [NIFURTIMOX] | 100% | – | – | –
